Assay results reported in patent publication US10590118B2, “Bicyclic heterocyclic derivatives as bromodomain inhibitors” (Orion Corporation, priority 2014, dated 2020).

Target: T1, Bet bromodomain protein (BRD4) (Homo sapiens, UniProt O60885)
T1 construct: made in house
Experiment: Bet bromodomain TR-FRET assay
Format: binding
Conditions: 300 nM acetyl histone peptide substrate, results given as Group A/B/C
Description: In-Vitro Biochemical Data of bicyclic heterocyclic derivatives in time-resolved fluorescence resonance energy transfer (TR-FRET) assay.
The Bet brommodomain TR-FRET assay has been used to identify compounds that bind to bet bromodomain and prevent its interaction with acetylated histone peptides.
In the assay, optimized concentration of in-house Bet bromodomain protein (BRD4) and 300 nM of acetyl histone peptide substrate were diluted in assay buffer (50 mM HEPES, pH: 7.5, 50 mM NaCl, 500 μM CHAPS) and were added to the positive control and test control wells in a 384 well plate. Substrate control wells have 300 nM of acetyl histone peptide substrate diluted in assay buffer. Buffer blank wells were added with assay buffer. The reaction mixture was allowed for incubation at room temperature for 30 mins. Stock solutions of test compounds at 20 mM DMSO are prepared. Compounds are serially diluted and added to the test wells in 384-well polypropylene plates. The reaction mixture was further incubated for 30 mins at room temperature on a plate shaker. 2 nM of Europium labeled streptavidn and 10 nM of XL-665 labeled antibody diluted in detection buffer (50 mM HEPES, pH: 7.5, 50 mM NaCl, 500 μM CHAPS and 800 mM KF) were added to all the wells excluding the buffer blank wells. The reaction plate was incubated for additional 30 mins at room temperature on plate shaker. The plate was read in Perkin Elmer WALLAC 1420 Multilabel Counter Victor 3 (Ex: 340 nm Em: 615 and 665 nm). The amount of displacement of the peptide was measured as ratio of specific 665 nm energy transfer signal to 615 nm signals. The compounds IC50 was determined by fitting the dose response data to sigmoid curve fitting equation using Graph Pad Prism software V5.

SMILES | IC50 [nM]
COc1cc2c(cc1-c1c(C)noc1C)OCCN2Cc1ccc(Cl)cc1 [Compound 1, 4-(4-chlorobenzyl)-7-(3,5-dimethylisoxazol-4-yl)-6-methoxy-3,4-dihydro-2H-benzo[b][1,4]oxazine] | ≤ 1000
COc1cc2c(ccc(=O)n2Cc2nccs2)cc1-c1c(C)noc1C [Compound 39, 6-(3,5-dimethylisoxazol-4-yl)-7-methoxy-1-(thiazol-2-ylmethyl)quinolin-2(1H)-one] | ≤ 1000
COc1cc2c(cc1-c1c(C)noc1C)OCC(=O)N2C(C)c1cccnc1 (single isomer, unassigned) [Compound 25, 7-(3,5-dimethytisoxazol-4-yl)-6-methoxy-4-(1-(pyridin-3-yl)ethyl)-2H-benzo[b][1,4]oxazin-3(4H)-one] | 1000 to 3000
COc1cc2c(ccc(=O)n2Cc2ccccn2)cc1-c1cnoc1C [Compound 63, 7-methoxy-6-(5-methylisoxazol-4-yl)-1-(pyridin-2-ylmethyl)quinolin-2(1H)-one] | > 3000
CCC(=O)N1CCC(CN2C(=O)COc3cc(-c4c(C)noc4C)c(OC)cc32)CC1 [Compound 90, 7-(3,5-dimethylisoxazol-4-yl)-6-methoxy-4-((1-propionylpiperidin-4-yl)methyl)-2H-benzo[b][1,4]oxazin-3(4H)-one] | ≤ 1000
COCCOc1cc2c(cc1-c1c(C)noc1C)OCC(=O)N2Cc1ccncc1 [Compound 71, 7-(3,5-dimethylisoxazol-4-yl)-6-(2-methoxyethoxy)-4-(pyridin-4-ylmethyl)-2H-benzo[b][1,4]oxazin-3(4H)-one] | > 3000
COc1cc2c(cc1-c1c(C)noc1C)OCC(=O)N2Cc1cccnc1 [Compound 21, 7-(3,5-dimethylisoxazol-4-yl)-6-methoxy-4-(pyridin-3-ylmethyl)-2H-benzo[b][1,4]oxazin-3(4H)-one] | ≤ 1000
COc1cc2c(cc1-c1c(C)noc1C)OCCN2S(=O)(=O)c1cccc(Cl)c1 [Compound 11, 4-((3-chlorophenyl)sulfonyl)-7-(3,5-dimethylisoxazol-4-yl)-6-methoxy-3,4-dihydro-2H-benzo[b][1,4]oxazine] | 1000 to 3000
COc1cc2c(cc1-c1c(C)noc1C)OCC(=O)N2Cc1ccc(C#N)cn1 [Compound 27, 6-((7-(3,5-dimethylisoxazol-4-yl)-6-methoxy-3-oxo-2H-benzo[b][1,4]oxazin-4(3H)-yl)methyl)nicotinonitrile] | 1000 to 3000
COc1cc2c(cc1-c1c(C)noc1C)OCCN2Cc1ccccc1N [Compound 16, 2-((7-(3,5-dimethylisoxazol-4-yl)-6-methoxy-2H-benzo[b][1,4]oxazin-4(3H)-yl)methyl)aniline] | ≤ 1000
COc1cc2c(cc1-c1c(C)noc1C)cc(C(O)(O)C(F)(F)F)c(=O)n2Cc1ccccn1 [Compound 104, 6-(3,5-dimethylisoxazol-4-yl)-7-methoxy-1-(pyridin-2-ylmethyl)-3-(2,2,2-trifluoro-1,1-dihydroxyethyl)quinolin-2(1H)-one] | ≤ 1000
Cc1noc(C)c1-c1cc2ccc(=O)n(Cc3ccccn3)c2cc1OCCN(C)C [Compound 76, 7-(2-(dimethylamino)ethoxy)-6-(3,5-dimethylisoxazol-4-yl)-1-(pyridin-2-ylmethyl)quinolin-2(1H)-one] | > 3000
COc1cc2c(ccc(=O)n2C(=O)c2ccc(Cl)cc2)cc1-c1c(C)noc1C [Compound 15, 1-(4-chlorobenzoyl)-6-(3,5-dimethylisoxazol-4-yl)-7-methoxyquinolin-2(1H)-one] | > 3000
COc1cc2c(cc1-c1c(C)noc1C)ncc(=O)n2Cc1ccccn1 [Compound 93, 6-(3,5-dimethylisoxazol-4-yl)-7-methoxy-1-(pyridin-2-ylmethyl)quinoxalin-2(1H)-one] | ≤ 1000
COc1cc2c(cc1NC(=O)c1c(C)noc1C)OCC(=O)N2Cc1ccc(Cl)cc1 [Compound 94, N-(4-(4-chlorobenzyl)-6-methoxy-3-oxo-3,4-dihydro-2H-benzo [b][1,4]oxazin-7-yl)-3,5-dimethylisoxazole-4-carboxamide] | > 3000
CCCCOc1cc2c(ccc(=O)n2Cc2ccccn2)cc1-c1c(C)noc1C [Compound 78, 7-butoxy-6-(3,5-dimethylisoxazol-4-yl)-1-(pyridin-2-ylmethyl)quinolin-2(1H)-one] | ≤ 1000
COc1cc2c(cc1-c1c(C)noc1C)OCC(=O)N2Cc1ccncc1 [Compound 17, 7-(3,5-dimethylisoxazol-4-yl)-6-methoxy-4-(pyridin-4-ylmethyl)-2H-benzo[b][1,4]oxazin-3(4H)-one] | ≤ 1000
COc1cc2c(cc1-c1c(C)noc1C)cc(C1CCCCC1)c(=O)n2Cc1cccnc1 [Compound 69, 3-cyclohexyl-6-(3,5-dimethylisoxazol-4-yl)-7-methoxy-1-(pyridin-3-ylmethyl)quinolin-2(1H)-one] | ≤ 1000
COc1ccc(CN2C(=O)COc3cc(-c4c(C)noc4C)c(OC)cc32)nc1 [Compound 30, 7-(3,5-dimethylisoxazol-4-yl)-6-methoxy-4-((5-methoxypyridin-2-yl)methyl)-2H-benzo[b][1,4]oxazin-3(4H)-one] | 1000 to 3000
COc1cc2c(cc1-c1c(C)noc1C)CCC(=O)N2Cc1ccccn1 [Compound 10, 6-(3,5-dimethylisoxazol-4-yl)-7-methoxy-1-(pyridin-2-ylmethyl)-3,4-dihydroquinolin-2(1H)-one] | ≤ 1000
COc1cc2c(ccc(=O)n2Cc2ccc(Cl)cn2)cc1-c1c(C)noc1C [Compound 37, 1-((5-chloropyridin-2-yl)methyl)-6-(3,5-dimethylisoxazol-4-yl)-7-methoxyquinolin-2(1H)-one] | ≤ 1000
COc1cc2c(cc1-c1c(C)noc1C)cc(CO)c(=O)n2Cc1ccccn1 [Compound 96, 6-(3,5-dimethylisoxazol-4-yl)-3-(hydroxymethyl)-7-methoxy-1-(pyridin-2-ylmethyl)quinolin-2(1H)-one] | ≤ 1000
COc1cc2c(cc1-c1c(C)noc1C)OCC(=O)N2Cc1ccccn1 [Compound 22, 7-(3,5-dimethytisoxazol-4-yl)-6-methoxy-4-(pyridin-2-ylmethyl)-2H-benzo[b][1,4]oxazin-3(4H)-one] | ≤ 1000
COc1cc2c(ccc(=O)n2Cc2ccc3ccccc3n2)cc1-c1c(C)noc1C [Compound 57, 6-(3,5-dimethylisoxazol-4-yl)-7-methoxy-1-(quinolin-2-ylmethyl)quinolin-2(1H)-one] | 1000 to 3000
COc1cc2c(cc1-c1c(C)noc1C)OCCN2S(=O)(=O)c1cccnc1 [Compound 12, 7-(3,5-dimethylisoxazol-4-yl)-6-methoxy-4-(pyridin-3-ylsulfonyl)-3,4-dihydro-2H-benzo[b][1,4]oxazine] | 1000 to 3000
COc1cc2c(cc1-c1c(C)noc1C)OCC(=O)N2CCc1ccccn1 [Compound 35, 7-(3,5-dimethylisoxazol-4-yl)-6-methoxy-4-(2-(pyridin-2-yl)ethyl)-2H-benzo[b][1,4]oxazin-3(4H)-one] | 1000 to 3000
COc1cc2c(ccc(=O)n2Cc2ccc(C(F)(F)F)cn2)cc1-c1c(C)noc1C [Compound 47, 6-(3,5-dimethylisoxazol-4-yl)-7-methoxy-1-((5-(trifluoromethyl)pyridin-2-yl)methyl)quinolin-2(1H)-one] | ≤ 1000
COc1cc2c(ccc(=O)n2Cc2ccccn2)cc1-n1c(C)c[nH]c1=O [Compound 91, 7-methoxy-6-(5-methyl-2-oxo-2,3-dihydro-1H-imidazol-1-yl)-1-(pyridin-2-ylmethyl)quinolin-2(1H)-one] | > 3000
